{"source": "patent US20100204113A1", "about": "“USE OF STRESSCOPIN-RELATED PEPTIDE AS A THERAPEUTIC AGENT” (priority 2007, published 2010)", "key": {"HIV-1IIIB": {"tested_on": "HIV-1IIIB", "test": "HIV-1 antiviral assay (CPE reduction, MTS)", "type": "cell-based", "settings": "peptide 10 micrograms per ml, 6 days post-infection"}, "in vitro [1]": {"test": "in vitro", "settings": "human, MRC-5 cells"}, "[2]": {"tested_on": "Human Peripheral Blood Mononuclear Cells (PBMC)", "test": "B cell proliferation assay (SAC plus Interleukin-2, 3H-thymidine)", "type": "cell-based", "settings": "peptide 10 micrograms per ml, 3H-thymidine incorporation"}, "Pseudomonas aeruginosa": {"tested_on": "Pseudomonas aeruginosa", "type": "cell-based", "settings": "5 micrograms per ml"}, "[3]": {"test": "Cytotoxicity in the HBV assay (dye uptake)", "type": "cell-based", "settings": "human, HepG2-2.2.15 cells, peptide 10 micrograms per ml, read-out: % Cell Viability"}, "A549 cells [4]": {"tested_on": "A549 cells", "test": "Apoptosis induction assay (Annexin-5)", "type": "cell-based, human", "settings": "peptide 10 micrograms per ml, 24 hours", "excerpt": "Human A549 cells (carcinomic human alveolar basal epithelial cells) were utilized in the experiments employing the Annexin-5 apoptosis assay."}, "HUVEC": {"tested_on": "HUVEC", "test": "Endothelial tube formation assay", "type": "cell-based, human", "settings": "peptide 10 micrograms per ml, 20 hours", "source_text": "Positive control was vehicle only."}, "spleen cells": {"tested_on": "spleen cells", "test": "Th1/Th2 cytokine profiling assay (Ovalbumin restimulation, CBA kit)", "type": "cell-based, Balb/c mice", "settings": "peptide 10 micrograms per ml, 72 hours"}, "A549 cells [5]": {"tested_on": "A549 cells", "test": "Apoptosis prevention assay (C2 ceramide, Annexin-5)", "type": "cell-based, human", "settings": "30 min pretreatment with peptide 10 micrograms per ml, then C2 ceramide"}, "[6]": {"tested_on": "macrophages prepared from human PBMC", "test": "TNF alpha production assay (LPS-stimulated macrophages, ELISA)", "type": "cell-based", "settings": "peptide 10 micrograms per ml, 30 min preincubation, lipopolysaccharide 200 ng/ml overnight", "source_text": "Not stimulated macrophages served as negative background control."}, "HCMV strain AD169": {"tested_on": "HCMV strain AD169", "test": "HCMV plaque reduction assay", "settings": "MRC-5 cells; peptide 10 micrograms per ml; 7-10 days"}, "[7]": {"tested_on": "Human Peripheral Blood Mononuclear Cells (PBMC)", "test": "T cell proliferation assay (PHA, 3H-thymidine)", "settings": "peptide 10 micrograms per ml, 3H-thymidine incorporation"}, "RAW 264.7 cells": {"tested_on": "RAW 264.7 cells", "test": "Phagocytosis assay (Fluorescein-labeled Escherichia coli, flow cytometry)", "type": "cell-based, mouse", "settings": "peptide 10 micrograms per ml, 30 min preincubation, 60 min ingestion"}, "in vitro [8]": {"test": "in vitro", "settings": "human, CEM-SS cells"}, "[9]": {"tested_on": "Primary Human endothelial cells (HUVEC)", "test": "Endothelial cell migration assay", "type": "cell-based", "settings": "peptide 10 micrograms per ml, 22 hours"}, "Streptococcus pneumoniae": {"tested_on": "Streptococcus pneumoniae", "type": "cell-based", "settings": "5 micrograms per ml"}, "MRSA": {"tested_on": "MRSA", "settings": "5 micrograms per ml"}, "[10]": {"tested_on": "hepatitis B virus (HBV) ayw strain", "test": "HBV assay (secreted HBV DNA, TaqMan PCR)", "type": "cell-based", "settings": "HepG2-2.2.15; peptide 10 micrograms per ml; six days; HBV DNA in supernatant"}, "A549 cells [11]": {"tested_on": "A549 cells", "test": "Cell cycle assay (propidium iodide, FACS)", "type": "cell-based, human", "settings": "peptide 10 micrograms per ml, 24 hours", "source_text": "The cell cycle consists of four distinct phases: […]"}, "CEM-SS cells": {"tested_on": "CEM-SS cells", "test": "Cytotoxicity in the HIV-1 assay (cell viability, MTS)", "settings": "peptide 10 micrograms per ml"}, "HepG2-2.2.15 cells": {"tested_on": "HepG2-2.2.15 cells", "test": "Cytotoxicity in the HBV assay (dye uptake)", "type": "cell-based", "settings": "peptide 10 micrograms per ml"}, "MRC-5 cells": {"tested_on": "MRC-5 cells", "settings": "human, 6 days"}}, "note": "No end group written: not given here.", "data": [{"compound": "HPGSRIVLSLDVPIGLLQILLEQARARAAREQATTNARILARV-NH2 [Stresscopin-related peptide]", "values": [{"measurement": "% CPE reduction in HIV-1 infected CEM-SS cells", "setting": "HIV-1IIIB", "value": 0.0, "unit": "%"}, {"measurement": "viability at 144 h, 10 micrograms per ml", "setting": "in vitro [1]", "value": 100, "unit": "%"}, {"measurement": "% of SAC/IL2 induced control", "setting": "[2]", "value": 91.4, "unit": "%"}, {"measurement": "% inhibition", "setting": "Pseudomonas aeruginosa", "value": 0.0, "unit": "%"}, {"measurement": "viability at 144 h, 10 micrograms per ml", "setting": "[3]", "value": 100, "unit": "%"}, {"measurement": "% of induction", "setting": "A549 cells [4]", "value": 1.2, "unit": "%"}, {"measurement": "% inhibition of tube formation", "setting": "HUVEC", "value": 35, "unit": "%"}, {"measurement": "IFNγ spleen cells; TH1 response (% of control)", "setting": "spleen cells", "value": "105.6 % of control"}, {"measurement": "IL-2 spleen cells (% of control)", "setting": "spleen cells", "value": "66.8 % of control"}, {"measurement": "IL-4 spleen cells; TH2 response (% of control)", "setting": "spleen cells", "value": "68.9 % of control"}, {"measurement": "IL-5 spleen cells; TH2 response (% of control)", "setting": "spleen cells", "value": "67.0 % of control"}, {"measurement": "TNF-a spleen cells; TH1 response (% of control)", "setting": "spleen cells", "value": "125.6 % of control"}, {"measurement": "% prevention of ceramide induced apoptosis", "setting": "A549 cells [5]", "value": 0.0, "unit": "%"}, {"measurement": "% of LPS induction", "setting": "[6]", "value": 117.0, "unit": "%"}, {"measurement": "% plaque reduction", "setting": "HCMV strain AD169", "value": 0.0, "unit": "%"}, {"measurement": "% of PHA induced control", "setting": "[7]", "value": 92.6, "unit": "%"}, {"measurement": "% of control phagocytosis", "setting": "RAW 264.7 cells", "value": 131.4, "unit": "%"}, {"measurement": "viability at 10 micrograms per ml", "setting": "in vitro [8]", "value": 100, "unit": "%"}, {"measurement": "% inhibition of migration", "setting": "[9]", "value": 15, "unit": "%"}, {"measurement": "% inhibition", "setting": "Streptococcus pneumoniae", "value": 0.0, "unit": "%"}, {"measurement": "% inhibition", "setting": "MRSA", "value": 0.0, "unit": "%"}, {"measurement": "% inhibition of HBV replication in HEP G2 cells", "setting": "[10]", "value": 0.0, "unit": "%"}, {"measurement": "Cell cycle analysis G0/G1", "setting": "A549 cells [11]", "value": 56.9}, {"measurement": "Cell cycle analysis G2/M", "setting": "A549 cells [11]", "value": 9.7}, {"measurement": "Cell cycle analysis S", "setting": "A549 cells [11]", "value": 33.4}]}, {"compound": "Cc1cn([C@H]2C[C@H](N=[N+]=[N-])[C@@H](CO)O2)c(=O)[nH]c1=O", "note": "[AZT, reference compound]", "values": [{"measurement": "% CPE reduction in HIV-1 infected CEM-SS cells", "setting": "HIV-1IIIB", "value": 99, "unit": "%"}, {"measurement": "% Cell viability", "setting": "CEM-SS cells", "value": 97, "unit": "%"}]}, {"compound": "Nc1ccn([C@@H]2CS[C@H](CO)O2)c(=O)n1", "note": "[3TC, Lamivudine, reference compound]", "values": [{"measurement": "% Cell viability", "setting": "HepG2-2.2.15 cells", "value": 95.8, "unit": "%"}]}, {"compound": "Nc1nc(O)c2ncn(COC(CO)CO)c2n1", "note": "[Ganciclovir]", "values": [{"measurement": "% Cell viability", "setting": "MRC-5 cells", "value": 100, "unit": "%"}]}]}
